From patent US4316898A, “Cephalosporins” (Boehringer Ingelheim KG, priority 1979, dated 1982) come the findings set out here.

Converted amounts (≈) assume the structure as drawn.

Test [1] deals with Pseudomonas aeruginosa Walter. Kind of test: Serial dilution test in the microtiter system, MIC against Pseudomonas aeruginosa Walter. Format: cell-based. The following applies: minimum inhibitory concentration, 37° C., 18 to 20 hours, read-out: MIC, Pseud. aerug. Walter. Here is the method:
(§1) The tests were performed using the serial dilution test in the microtiter system. The effect of the test compounds on bacteriostasis was examined at the following concentrations: 80, 40, 20, 10, 5, 2.5, 1.25, 0.6, 0.3, 0.08 and 0.02 μgm/ml. The nutrient medium consisted of 10 gm of peptone, 8 gm of meat extract oxoid, 3 gm of sodium chloride, and 2 gm of sec. sodium phosphate diluted with distilled water to […] (pH 7.2-7.4). Only in the test against streptococci 1% of glucose was added. The age of the primary cultures was approximately 20 hours. The standardization of the bacteria suspension was effected using a photometer according to the method of Eppendorf (test tube .phi. 14 mm, filter 546 nm), using for comparison a barium sulfate suspension formed by the addition of 3.0 ml of 1% barium chloride solution to 97 ml of 1% sulfuric acid. After the standardization,Streptococcus aronson was further diluted to a concentration of 1:15, and the other bacteria to a concentration of 1:1500, using a sodium chloride solution.
(§2) 16 mgm of the particular test compound were put into a 10 ml measuring flask, and the flask was subsequently filled to the mark with solvent. The further dilution series was standardized with distilled water or the appropriate solvent.
(§3) The cavities of the microtiter plates were filled with 0.2 ml of nutrient medium. 0.01 ml of the appropriate test compound solution was then added, followed by inoculation with 0.01 ml of the standardized bacteria suspension. The bacteria were incubated at 37° C. for 18 to 20 hours. Control tests using only the solvent were carried out simultaneously.
(§4) The measurement was carried out macroscopically to determine the minimum inhibitory concentration (the lowest still bacteriostatically effective concentration).
(§5) The following test organisms were used:
(§6) Staphylococcus aureus SG 511, St. aureus E 88 (β-lactamase carrier), Escherichia coli ATCC 11 775, Pseudomonas aeruginosa Hamburgensis and Pseudomonas aeruginosa Walter, Serratia macrescens ATCC 13 880, Klebsiella pneumoniae ATCC 10 031 and 272, Proteus mirabilis Hamburgensis, Proteus rettgeri Eb. cloaceae ATCC 13047, and E. coli R+TEM (β-lactamase carrier).
(§7) The following tables show the determined minimum inhibitory concentrations (MIC) for a few representative compounds (E=Na) of the present invention, and two known cephalosporins for comparison: […]

The test system of the next test is E. coli R+TEM. The test is described as follows: Serial dilution test in the microtiter system, MIC against E. coli R+TEM (β-lactamase carrier). The following applies: Escherichia coli, read-out: MIC, E. coli R + TEM. Format: cell-based. Here is the method:
as §1, §2, §3, §4, §5, §6, §7

Another test relates to Eb. cloaceae ATCC 13047. Kind of test: Serial dilution test in the microtiter system, MIC against Eb. cloaceae ATCC 13047. Type of test: cell-based. The following applies: minimum inhibitory concentration; 37° C., 18 to 20 hours. Here is the method:
as §1, §2, §3, §4, §5, §6, §7

A further test concerns St. aureus E 88. Kind of test: Serial dilution test in the microtiter system, MIC against S. aureus E 88 (β-lactamase carrier). Format: cell-based. The following applies: Staphylococcus aureus, E88, minimum inhibitory concentration, 37° C., 18 to 20 hours. Here is the method: as §1, §2, §3, §4, §5, §6, §7
Test [2] concerns Pseudomonas aeruginosa Hamburgensis. Kind of test: Serial dilution test in the microtiter system, MIC against Pseudomonas aeruginosa Hamburgensis. Format: cell-based. To be noted: minimum inhibitory concentration, 37° C., 18 to 20 hours, read-out: MIC, Pseud. aerug. Hbg. Here is the method:
as §1, §2, §3, §4, §5, §6, §7

In test [3] the test system is Proteus mirabilis Hamburgensis. The test is described as follows: Serial dilution test in the microtiter system, MIC against Proteus mirabilis Hamburgensis. The following applies: minimum inhibitory concentration, 37° C., 18 to 20 hours, read-out: MIC, Prot. Mir. Hbg. Format: cell-based. Here is the method:
as §1, §2, §3, §4, §5, §6, §7

Test [4] deals with Klebsiella pneumoniae ATCC 10 031. The test is described as follows: Serial dilution test in the microtiter system, MIC against Klebsiella pneumoniae ATCC 10031. Format: cell-based. To be noted: minimum inhibitory concentration, 37° C., 18 to 20 hours, read-out: MIC, Klebs. pneum. ATCC 10031. Here is the method:
as §1, §2, §3, §4, §5, §6, §7

Test [5] relates to Klebsiella pneumoniae 272. The test is described as follows: Serial dilution test in the microtiter system, MIC against Klebsiella pneumoniae 272. Format: cell-based. The following applies: minimum inhibitory concentration, 37° C., 18 to 20 hours, read-out: MIC, Klebs. pneum. 272. Here is the method: as §1, §2, §3, §4, §5, §6, §7
The next test relates to Proteus rettgeri. Kind of test: Serial dilution test in the microtiter system, MIC against Proteus rettgeri. Type of test: cell-based. The following applies: Providencia rettgeri; minimum inhibitory concentration; 37° C., 18 to 20 hours; read-out: MIC, Prot. rettg. Here is the method:
as §1, §2, §3, §4, §5, §6, §7

Test [6] deals with Escherichia coli ATCC 11 775. Kind of test: Serial dilution test in the microtiter system, MIC against E. coli ATCC 11775. Format: cell-based. The following applies: minimum inhibitory concentration, 37° C., 18 to 20 hours. Here is the method: as §1, §2, §3, §4, §5, §6, §7
Test [7] relates to Staphylococcus aureus SG 511. Kind of test: Serial dilution test in the microtiter system, MIC against S. aureus SG 511. To be noted: SG511, minimum inhibitory concentration, 37° C., 18 to 20 hours. Format: cell-based. Here is the method: as §1, §2, §3, §4, §5, §6, §7
For test [8], the system named is Pseudomonas aeruginosa Walter. The test is described as follows: In vivo test in mice against experimental Pseudomonas infection. Further details: species or system Female NMRI mice. The following applies: subcutaneous, observation 7 days; for ED50: Pseudomonas aeruginosa, sc, 168 h, per dose, dose at which 50% of the animals survived. Here is the method:
(§8) A series of the compounds according to the invention was tested in vivo in mice against experimental infections. As pathogenic bacteria were used E. coli ATCC 11775 and Pseudomonas aeruginosa Walter. An intraperitoneal infection was induced in each mouse with 0.2 ml of a 5% mucin suspension of the bacteria corresponding of approximately 1.4×10^6 E. coli cells and 1.3×10^6 Pseudomonas cells per mouse. Female NMRI mice were used, divided into groups of 10 animals. Two groups were untreated and the remaining groups were treated with different doses of the cephalosporins to be tested to determine the ED50 (dose at which 50% of the animals survived). The groups infected with E. coli were on the first day treated with the test compound three times ([…] post infectionem) and on the second day twice. The groups with the Pseudomonas infection were on the first day treated with the test compound six times (1, 3, 5, 7, 9 and 11 hours post infectionem), and on the following two days twice.
(§9) The observation time was in both cases 7 days.

The test system of test [9] is Serratia macrescens ATCC 13 880. Kind of test: Serial dilution test in the microtiter system, MIC against Serratia marcescens ATCC 13880. To be noted: read-out: MIC, Serr. marcesc. ATCC 13880. Type of test: cell-based. Here is the method:
as §1, §2, §3, §4, §5, §6, §7

In the next test the test system is E. coli ATCC 11775. Kind of test: In vivo test in mice against experimental E. coli infection. To be noted: Escherichia coli, ATCC11775, sc, 168 h; subcutaneous; per dose; dose at which 50% of the animals survived; observation 7 days. Also noted: species or system Female NMRI mice. Here is the method: as §8, §9

For orientation: MIC means the lowest concentration found to suppress growth. For orientation: ED50 means the dose that gives a 50% effect, or the effect in half of the subjects. A low value points to an effect at a small dose. With `Cn1nnnc1SCC1=C(C(=O)O)N2C(=O)[C@@H](NC(=O)[C@H](NC(=O)Nc3cnc(NC4CCC(O)CC4)nc3O)c3ccc(O)cc3)[C@H]2SC1` (stereo partly shown) [C], the MIC worked out at 4 µg/mL (≈ 5.5 µM) in test [1]; 8 µg/mL in the test with E. coli R+TEM; 0.5 µg/mL (≈ 0.687 µM) against Eb. cloaceae ATCC 13047; 8 µg/mL (≈ 11 µM) against St. aureus E 88; 4 µg/mL (≈ 5.5 µM) in test [2]; 0.13 µg/mL (≈ 0.179 µM) in [3]. Besides, the MIC in [4] was 0.5 µg/mL (≈ 0.687 µM); in [5] it was 0.5 µg/mL (≈ 0.687 µM); with Proteus rettgeri, 1 µg/mL (≈ 1.37 µM); in [6] it was 0.13 µg/mL (≈ 0.179 µM); in [7] it was 1 µg/mL (≈ 1.37 µM); in test [9], 0.5 µg/mL (≈ 0.687 µM). In addition, the ED50 turned out to be 4.2 mg/kg in test [8] and 0.4 mg/kg with E. coli ATCC 11775.
Consider `CO/N=C(\C(=O)N[C@@H]1C(=O)N2C(C(=O)O)=C(COC(N)=O)CS[C@H]12)c1ccco1` [Cefuroxim, reference compound], for which the MIC in test [1] was more than 100 µg/mL; with E. coli R+TEM, 4 µg/mL; against Eb. cloaceae ATCC 13047, 32 µg/mL (≈ 75.4 µM); against St. aureus E 88, 16 µg/mL (≈ 37.7 µM); in test [2], more than 100 µg/mL; in [3], 0.5 µg/mL (≈ 1.18 µM). For the same molecule, the minimal inhibitory concentration (MIC) in test [4] stood at 2 µg/mL (≈ 4.71 µM); in test [5], 4 µg/mL (≈ 9.43 µM); in the test with Proteus rettgeri, 2 µg/mL (≈ 4.71 µM); in test [6] it was 8 µg/mL (≈ 18.9 µM); in [7], 1 µg/mL (≈ 2.36 µM); in [9] it was 8 µg/mL (≈ 18.9 µM). Also, the “Mortality, Pseudomonas infection” value in test [8] (at 200 mg/kg per dose) is listed as “all animals died”. Also, the median effective dose (ED50) with E. coli ATCC 11775 was 37 mg/kg.
Turning to `Cn1nnnc1SCC1=C(C(=O)O)N2C(=O)[C@@H](NC(=O)[C@H](NC(=O)Nc3cnc(NCCCO)nc3O)c3ccc(O)cc3)[C@H]2SC1` [E], the minimal inhibitory concentration (MIC) turned out to be 8 µg/mL (≈ 11.6 µM) in test [1]; 16 µg/mL in the test with E. coli R+TEM; 0.5 µg/mL (≈ 0.727 µM) in the test with Eb. cloaceae ATCC 13047; 8 µg/mL (≈ 11.6 µM) with St. aureus E 88; 4 µg/mL (≈ 5.82 µM) in test [2]; 0.13 µg/mL (≈ 0.189 µM) in [3]. Moreover, the minimum inhibitory concentration (MIC) in test [4] amounted to 0.5 µg/mL (≈ 0.727 µM); in [5], 1 µg/mL (≈ 1.45 µM); in the test with Proteus rettgeri, 1 µg/mL (≈ 1.45 µM); in test [6], 0.25 µg/mL (≈ 0.364 µM); in test [7], 1 µg/mL (≈ 1.45 µM); in test [9], 1 µg/mL (≈ 1.45 µM). Also, the ED50 in [8] is 11.2 mg/kg; in the test with E. coli ATCC 11775 it was 0.8 mg/kg.
Turning to `CNS(=O)(=O)c1ccc(Nc2ncc(NC(=O)N[C@@H](C(=O)N[C@@H]3C(=O)N4C(C(=O)O)=C(CSc5nnnn5C)CS[C@H]34)c3ccc(O)cc3)c(O)n2)cc1` [K], the MIC is 2 µg/mL (≈ 2.5 µM) in [1]; 2 µg/mL with E. coli R+TEM; 0.5 µg/mL (≈ 0.626 µM) in the test on Eb. cloaceae ATCC 13047; 4 µg/mL (≈ 5.01 µM) against St. aureus E 88; 4 µg/mL (≈ 5.01 µM) in [2]; 0.06 µg/mL (≈ 0.0751 µM) in [3]. Also, the minimum inhibitory concentration (MIC) is 0.06 µg/mL (≈ 0.0751 µM) in test [4]; 0.13 µg/mL (≈ 0.163 µM) in test [5]; 0.25 µg/mL (≈ 0.313 µM) in the test with Proteus rettgeri; less than 0.03 µg/mL in [6]; 0.5 µg/mL (≈ 0.626 µM) in test [7]; 0.13 µg/mL (≈ 0.163 µM) in test [9]. For the same molecule, the ED50 in test [8] was 3.6 mg/kg; in the test on E. coli ATCC 11775, 0.3 mg/kg.
As to `Cn1nnnc1SCC1=C(C(=O)O)N2C(=O)[C@@H](NC(=O)[C@H](NC(=O)Nc3cnc(Nc4ccc(S(N)(=O)=O)cc4)nc3O)c3ccc(O)cc3)[C@H]2SC1` [L], the MIC was 2 µg/mL (≈ 2.55 µM) in test [1]; 2 µg/mL with E. coli R+TEM; 0.5 µg/mL (≈ 0.637 µM) in the test with Eb. cloaceae ATCC 13047; 4 µg/mL (≈ 5.1 µM) in the test with St. aureus E 88; 2 µg/mL (≈ 2.55 µM) in test [2]; less than 0.06 µg/mL in test [3]. Also, the minimum inhibitory concentration (MIC) in test [4] is 0.06 µg/mL (≈ 0.0765 µM); in test [5], 0.06 µg/mL (≈ 0.0765 µM); in the test with Proteus rettgeri, 0.13 µg/mL (≈ 0.166 µM); in [6] it was less than 0.03 µg/mL; in [7] it was 0.5 µg/mL (≈ 0.637 µM); in [9], 0.06 µg/mL (≈ 0.0765 µM). Also, the results for the ED50 (in test [8]; with E. coli ATCC 11775) were 2.1 mg/kg and 0.15 mg/kg, respectively.
